Assay results from EP4806891A1 (Kangbaida (Sichuan) Biotechnology Co., Ltd., priority 2023, dated 2025).
pIC50: −log10 of the molar value.

Assays:
[1] = target: T1, HEK-Blue-hTLR8 cells (Homo sapiens, UniProt Q9NR97); assay: HEK-Blue-hTLR8 cell inhibition assay; type: cell-based; details: R848 3 µM, 16 h, OD 620 nm, read-out: TLR8 IC50
T1 construct: expressed in transfected cells; host or cells: HEK-Blue-hTLR8 cells (HEK293-derived reporter line)
T1 sequence (Q9NR97 27-1041): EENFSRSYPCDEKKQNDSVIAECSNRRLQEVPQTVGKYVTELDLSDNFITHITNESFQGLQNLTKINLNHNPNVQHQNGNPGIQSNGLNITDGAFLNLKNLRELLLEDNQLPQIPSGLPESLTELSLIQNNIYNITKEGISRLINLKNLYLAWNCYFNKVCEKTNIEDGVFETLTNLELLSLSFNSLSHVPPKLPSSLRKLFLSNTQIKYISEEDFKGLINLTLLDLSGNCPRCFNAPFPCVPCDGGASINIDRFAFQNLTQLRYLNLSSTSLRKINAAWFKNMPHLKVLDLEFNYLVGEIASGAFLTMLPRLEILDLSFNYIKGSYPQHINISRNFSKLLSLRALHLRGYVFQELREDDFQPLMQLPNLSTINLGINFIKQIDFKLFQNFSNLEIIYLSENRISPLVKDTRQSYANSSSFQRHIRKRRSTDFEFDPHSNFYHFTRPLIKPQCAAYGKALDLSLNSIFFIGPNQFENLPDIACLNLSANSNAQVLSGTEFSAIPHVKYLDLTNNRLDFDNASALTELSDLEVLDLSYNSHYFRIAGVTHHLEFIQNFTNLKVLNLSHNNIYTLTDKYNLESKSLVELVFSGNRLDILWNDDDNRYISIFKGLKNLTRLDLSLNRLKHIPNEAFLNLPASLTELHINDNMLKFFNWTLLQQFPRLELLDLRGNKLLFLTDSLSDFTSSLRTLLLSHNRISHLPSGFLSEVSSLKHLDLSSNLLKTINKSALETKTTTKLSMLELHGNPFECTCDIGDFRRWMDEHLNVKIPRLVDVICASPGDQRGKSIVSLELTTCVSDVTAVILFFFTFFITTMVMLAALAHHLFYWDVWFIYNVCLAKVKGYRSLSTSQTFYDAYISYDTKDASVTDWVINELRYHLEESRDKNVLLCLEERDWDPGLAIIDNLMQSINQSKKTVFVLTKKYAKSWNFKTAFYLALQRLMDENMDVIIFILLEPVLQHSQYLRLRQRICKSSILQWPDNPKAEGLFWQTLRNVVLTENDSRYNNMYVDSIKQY
Experimental: (§1) HEK-Blue-hTLR7/8/9 cell inhibition assay
(§2) 1. HEK-Blue-hTLR7/8 cells (1 × 10^4 cells/well) and HEK-Blue-hTLR9 cells (1.5 × 10^4 cells/well) were seeded in a 384-well cell culture plate, with a volume of 30 µL per well. The plate was incubated at 37°C in a 5% CO2 incubator for 4 h. 2. The compound was prepared with DMSO and diluted in DMEM medium to 10 concentrations (1:3 dilution), with final concentrations of 10000, 3333.3, 1111.1, 370.4, 123.5, 41.2, 13.7, 4.6, 1.5, and 0.5 nM; R848 was prepared with DMSO and diluted in DMEM medium, with final concentrations of 0.8 µM (HEK-Blue-hTLR7) and 3 µM (HEK-Blue-hTLR8); ODN2006 was prepared with endotoxin-free water and diluted in DMEM medium, with a final concentration of 1 µM. 3. Cells treated with DMSO were used as the blank control group, while cells treated solely with Resiquimod (R848) were used as the positive control group for HEK-Blue-hTLR7/8, and cells treated solely with ODN2006 were used as the positive control group for HEK-Blue-hTLR9. Cells treated with the test compound together with R848 or ODN2006 were used as the test group. Two parallel wells were set for each group and were placed at 37°C in a 5% CO2 incubator for incubation. 4. After being incubated for 4 h, the 384-well plate of HEK-Blue-hTLR7/8 was taken out from the incubator, and R848 alone or both R848 and the diluted compound were separately added into each well. The plate was placed at 37°C in a 5% CO2 incubator for incubation for 16 h; the 384-well plate of HEK-Blue-hTLR9 was taken out from the incubator, and ODN2006 alone or both ODN2006 and the diluted compound were added separately to each well. The plate was incubated at 37°C in a 5% CO2 incubator for 16 h. 5. After being incubated for 16 h, the 384-well plate was removed from the incubator and centrifuged at 1000 rpm for 1 minute. The optical density value of each well at 620 nm was measured using a multifunctional microplate reader. 6. The cell inhibition rate was calculated as (1-(OD620 test group-OD620 blank group)/(OD620 positive group-OD620 blank group))×100%, and the half maximal inhibitory concentration (IC50) was calculated through curve fitting. Table 1: Activity of the compounds of the present disclosure in HEK-Blue-hTLR7/8/9 cellular assays

[2] = target: T2, HEK-Blue-hTLR7 cells (Homo sapiens, UniProt Q9NYK1); assay: HEK-Blue-hTLR7 cell inhibition assay; type: cell-based; details: R848 0.8 µM, 16 h, OD 620 nm, read-out: TLR7 IC50
T2 construct: expressed in transfected cells; host or cells: HEK-Blue-hTLR7 cells (HEK293-derived reporter line)
T2 sequence (Q9NYK1 27-1049): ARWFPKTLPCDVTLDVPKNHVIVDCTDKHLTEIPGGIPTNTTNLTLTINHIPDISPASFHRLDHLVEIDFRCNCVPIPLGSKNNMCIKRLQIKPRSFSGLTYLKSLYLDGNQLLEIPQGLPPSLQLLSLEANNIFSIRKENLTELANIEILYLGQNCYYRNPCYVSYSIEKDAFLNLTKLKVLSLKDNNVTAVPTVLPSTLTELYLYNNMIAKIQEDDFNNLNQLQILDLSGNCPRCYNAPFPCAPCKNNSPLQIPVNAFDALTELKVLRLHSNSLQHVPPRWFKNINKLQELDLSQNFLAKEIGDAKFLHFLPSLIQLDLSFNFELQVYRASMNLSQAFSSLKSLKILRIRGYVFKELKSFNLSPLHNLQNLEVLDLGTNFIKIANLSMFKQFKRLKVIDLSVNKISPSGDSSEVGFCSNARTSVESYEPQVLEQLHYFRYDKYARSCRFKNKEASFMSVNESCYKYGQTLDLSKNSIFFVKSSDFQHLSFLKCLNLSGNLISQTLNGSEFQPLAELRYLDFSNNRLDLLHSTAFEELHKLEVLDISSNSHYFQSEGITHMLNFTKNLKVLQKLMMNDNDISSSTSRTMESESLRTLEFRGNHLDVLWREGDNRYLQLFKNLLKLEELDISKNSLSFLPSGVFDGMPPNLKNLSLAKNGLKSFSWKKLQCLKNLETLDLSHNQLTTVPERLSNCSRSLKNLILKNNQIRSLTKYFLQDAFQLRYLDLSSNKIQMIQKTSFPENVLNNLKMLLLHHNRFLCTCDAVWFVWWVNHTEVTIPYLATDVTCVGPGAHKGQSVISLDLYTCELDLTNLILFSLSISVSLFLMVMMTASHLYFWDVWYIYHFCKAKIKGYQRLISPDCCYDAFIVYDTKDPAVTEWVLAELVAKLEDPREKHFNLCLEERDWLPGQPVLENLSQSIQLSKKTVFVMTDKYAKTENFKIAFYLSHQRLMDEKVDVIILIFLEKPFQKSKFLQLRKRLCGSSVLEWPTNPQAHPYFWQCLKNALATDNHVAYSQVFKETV
Experimental: as §1, §2

Row | SMILES | pIC50 [1] | pIC50 [2]
1 | CN1CC2(CC(c3nnc([C@]45CN(c6ccc(C(F)(F)F)c7ncccc67)C[C@@]4(C(F)(F)F)C5)o3)C2)C1 [Compound 16, 2-(2-methyl-2-azaspiro[3.3]heptan-6-yl)-5-((1S,5R)-5-(trifluoromethyl)-3-(8-(trifluoromethyl)quinolin-5-yl)-3-azabicyclo[3.1.0]hexan-1-yl)-1,3,4-oxadiazole] | > 7.00 | > 7.00
2 | N#Cc1ccc(N2C[C@]3(c4nnc(OCCN5CCCC5)o4)C[C@]3(C(F)(F)F)C2)c2cccnc12 [Compound 48, 5-((1S,5R)-1-(5-(2-(pyrrolidin-1-yl)ethoxy)-1,3,4-oxadiazol-2-yl)-5-(trifluoromethyl)-3-azabicyclo[3.1.0]hexan-3-yl)quinoline-8-carbonitrile] | > 7.00 | > 7.00
3 | COc1ccc2c(N3C[C@]4(c5nnc(C6CCN(C)CC6)o5)C[C@]4(C(F)(F)F)C3)ccc(C#N)c2n1 [Compound 61, 2-methoxy-5-((1S,5R)-1-(5-(1-methylpiperidin-4-yl)-1,3,4-oxadiazol-2-yl)-5-(trifluoromethyl)-3-azabicyclo[3.1.0]hexan-3-yl)quinoline-8-carbonitrile] | > 6.00 | < 6.00
4 | Cc1ccc(N2C[C@]3(c4nnc(C5CCN(C)CC5)o4)C[C@]3(C(F)(F)F)C2)c2cccnc12 [Compound 65, 2-(1-methylpiperidin-4-yl)-5-((1S,5R)-5-(trifluoromethyl)-3-(8-methylquinolin-5-yl)-3-azabicyclo[3.1.0]hexan-1-yl)-1,3,4-oxadiazole] | > 7.00 | > 7.00
5 | CN1CCC(c2nnc([C@]34CN(c5ccc(Cl)c6ncccc56)C[C@@]3(C(F)(F)F)C4)o2)CC1 [Compound 67, 2-((1S,5R)-3-(8-chloroquinolin-5-yl)-5-(trifluoromethyl)-3-azabicyclo[3.1.0]hexan-1-yl)-5-(1-methylpiperidin-4-yl)-1,3,4-oxadiazole] | > 7.00 | > 7.00
6 | CN1CCC(c2nnc([C@]34CN(c5cnc(C#N)c6ncccc56)C[C@@]3(C(F)(F)F)C4)o2)CC1 [Compound 68, 5-((1S,5R)-1-(5-(1-methylpiperidin-4-yl)-1,3,4-oxadiazol-2-yl)-5-(trifluoromethyl)-3-azabicyclo[3.1.0]hexan-3-yl)-1,7-naphthyridine-8-carbonitrile] | > 7.00 | > 7.00
7 | CCc1nc2c(C#N)ccc(N3C[C@]4(c5nnc(C6CCN(C)CC6)o5)C[C@]4(C(F)(F)F)C3)c2nc1CC [Compound 70, 2,3-diethyl-8-((1S,5R)-1-(5-(1-methylpiperidin-4-yl)-1,3,4-oxadiazol-2-yl)-5-(trifluoromethyl)-3-azabicyclo[3.1.0]hexan-3-yl)quinoxaline-5-carbonitrile] | < 5.00 | < 6.00

More lines, now with the values ahead:

Row | pIC50 [1] | pIC50 [2] | SMILES
8 | < 6.00 | < 6.00 | CN1CCC(c2nnc([C@]34CN(c5ccc(C#N)c6nc(Cl)ccc56)C[C@@]3(C(F)(F)F)C4)o2)CC1 [Compound 58, 2-chloro-5-((1S,5R)-1-(5-(1-methylpiperidin-4-yl)-1,3,4-oxadiazol-2-yl)-5-(trifluoromethyl)-3-azabicyclo[3.1.0]hexan-3-yl)quinoline-8-carbonitrile]
9 | > 7.00 | > 7.00 | CN1CCC(c2nnc([C@]34CN(c5ccc([N+](=O)[O-])c6ncccc56)C[C@@]3(C(F)(F)F)C4)o2)CC1 [Compound 62, 2-(1-methylpiperidin-4-yl)-5-((1S,5R)-3-(8-nitroquinolin-5-yl)-5-(trifluoromethyl)-3-azabicyclo[3.1.0]hexan-1-yl)-1,3,4-oxadiazole]
10 | > 7.00 | > 7.00 | CN1CCN(c2nnc([C@]34CN(c5ccc(C#N)n6ncc(F)c56)C[C@@]3(C(F)(F)F)C4)o2)CC1 [Compound 63, 3-fluoro-4-((1S,5R)-1-(5-(4-methylpiperazin-1-yl)-1,3,4-oxadiazol-2-yl)-5-(trifluoromethyl)-3-azabicyclo[3.1.0]hexan-3-yl)pyrazolo[1,5-a]pyridine-7-carbonitrile]
11 | > 7.00 | > 7.00 | CN1CCC(c2nnc([C@]34CN(c5ccc(F)c6ncccc56)C[C@@]3(C(F)(F)F)C4)o2)CC1 [Compound 69, 2-((1S,5R)-3-(8-fluoroquinolin-5-yl)-5-(trifluoromethyl)-3-azabicyclo[3.1.0]hexan-1-yl)-5-(1-methylpiperidin-4-yl)-1,3,4-oxadiazole]
12 | > 6.00 | < 6.00 | CN1CCC(c2nnc([C@]34CN(c5ccc(C#N)c6c5ccc(=O)n6C)C[C@@]3(C(F)(F)F)C4)o2)CC1 [Compound 72, 1-methyl-5-((1S,5R)-1-(5-(1-methylpiperidin-4-yl)-1,3,4-oxadiazol-2-yl)-5-(trifluoromethyl)-3-azabicyclo[3.1.0]hexan-3-yl)-2-oxo-1,2-dihydroquinoline-8-carbonitrile]
13 | < 6.00 | < 6.00 | Cc1ccc2c(N3C[C@]4(c5nnc(C6CCN(C)CC6)o5)C[C@]4(C(F)(F)F)C3)ccc(C#N)c2n1 [Compound 73, 2-methyl-5-((1S,5R)-1-(5-(1-methylpiperidin-4-yl)-1,3,4-oxadiazol-2-yl)-5-(trifluoromethyl)-3-azabicyclo[3.1.0]hexan-3-yl)quinoline-8-carbonitrile]
